Reference: patent publication US5438052A, “Cephalosporin derivatives” (Hoffmann-La Roche Inc., priority 1991, dated 1995)
Values after ≈ are worked out from the molar mass of the structure shown. Structures can show the parent of a compound that is named as a salt. Where two headings read alike, the source gives them in different places.

Tests used:
E. coli 25922 [1] = experiment: Minimum inhibitory concentration in vitro, agar dilution method; type: cell-based; conditions: Escherichia coli
Text: (§1) 1. Minimum Inhibitory Concentration in vitro
(§2) The activities ascertained, minimum inhibitory concentration (MIC) in μg/ml, are compiled in Table 1 hereinafter: […]

S. pyogenes 15 = experiment: as above; type: cell-based; conditions: Streptococcus pyogenes
Text: as §1, §2

P. aeruginosa MK1184 = experiment: as above; type: cell-based; conditions: Pseudomonas aeruginosa
Text: as §1, §2

P. mirabilis 2117 = experiment: as above; type: cell-based; conditions: Proteus mirabilis
Text: as §1, §2

P. aeruginosa 799/61 = experiment: as above; type: cell-based; conditions: Pseudomonas aeruginosa
Text: as §1, §2

S. marcescens 69438 = experiment: as above; type: cell-based; conditions: Serratia marcescens
Text: as §1, §2

P. aeruginosa 799/WT = experiment: as above; type: cell-based; conditions: Pseudomonas aeruginosa
Text: as §1, §2

E. cloacae 908SSi = experiment: as above; type: cell-based; conditions: Enterobacter cloacae
Text: as §1, §2

E. cloacae 908R = experiment: as above; type: cell-based; conditions: Enterobacter cloacae
Text: as §1, §2

P. vulgaris 1028 = experiment: as above; type: cell-based; conditions: Proteus vulgaris
Text: as §1, §2

S. aureus 6538 = experiment: as above; type: cell-based; conditions: Staphylococcus aureus
Text: as §1, §2

E. aerogenes CF153 = experiment: as above; type: cell-based; conditions: Klebsiella aerogenes; E. aerogenes CF153, agar dilution; read-out: MIC
Text: as §1, §2

P. aeruginosa BA = experiment: as above; type: cell-based; conditions: Pseudomonas aeruginosa
Text: as §1, §2

P. aeruginosa 27853 = experiment: as above; type: cell-based; conditions: Pseudomonas aeruginosa
Text: as §1, §2

K. oxytoca 1082 = experiment: as above; type: cell-based; conditions: Klebsiella oxytoca
Text: as §1, §2

E. cloacae P99 = experiment: as above; type: cell-based; conditions: Enterobacter cloacae
Text: as §1, §2

K. pneumoniae 418 = experiment: as above; type: cell-based; conditions: Klebsiella pneumoniae
Text: as §1, §2

C. freundii 902 = experiment: as above; type: cell-based; conditions: Citrobacter freundii
Text: as §1, §2

E. coli 25922 [2] = experiment: Experimental systemic septicaemia in the mouse; type: in vivo; conditions: 96 h
Experimental: (§3) 2. Experimental systemic septicaemia in the mouse
(§4) An experimental systemic septicaemia was produced in albino mice weighing 16-20 g by intraperitoneally injecting into the experimental animals a sample of a dilute culture of the test organism which had been grown overnight. The sample administered is calculated such that the dosage administered is about 5-100 times greater than the dosage which is required to kill 50% of untreated experimental animals within 48 hours. The bacteria were injected as a suspension in the culture broth. Groups of 5 experimental animals each were used not only for the control, but also for the treatment for each dosage tested. The products in accordance with the invention were administered subcutaneously as a suspension in Tween 80 (2%), whereby the concentrations were chosen such that each experimental animal received 500 μl per administration. The respective concentrations were administered twice, namely 1 and 3 hours after the infection (in the case of P. aeruginosa three times, namely 1, 3 and 5 hours after the infection). The ED50 is that dosage which protects 50% of the experimental animals and was calculated by means of the Probit method on the basis of the survial rate after 4 days following the infection. The ED50 values in mg/kg s.c. (subcutaneous) for representatives of the class of substance in accordance with the invention are given in Table 2 hereinafter.

[3] = system: Pseudomonas aeruginosa BA; experiment: Experimental systemic septicaemia in the mouse; type: in vivo; conditions: sc, 96 h
Experimental: as §3, §4

S. pneumoniae BA = experiment: Minimum inhibitory concentration in vitro, agar dilution method; type: cell-based; conditions: Streptococcus pneumoniae
Text: as §1, §2

[4] = E. coli 25922, agar dilution, read-out: MIC
[5] = S. pyogenes 15, agar dilution, read-out: MIC
[6] = P. aeruginosa MK1184, agar dilution, read-out: MIC
[7] = P. mirabilis 2117, agar dilution, read-out: MIC
[8] = P. aeruginosa 799/61, agar dilution, read-out: MIC
[9] = S. marcescens 69438, agar dilution, read-out: MIC
[10] = P. aeruginosa 799/WT, agar dilution, read-out: MIC
[11] = E. cloacae 908SSi, agar dilution, read-out: MIC
[12] = E. cloacae 908R, agar dilution, read-out: MIC
[13] = P. vulgaris 1028, agar dilution, read-out: MIC
[14] = S. aureus 6538, agar dilution, read-out: MIC
[15] = P. aeruginosa BA, agar dilution, read-out: MIC
[16] = P. aeruginosa 27853, agar dilution, read-out: MIC
[17] = K. oxytoca 1082, agar dilution, read-out: MIC
[18] = K. pneumoniae 418, agar dilution, read-out: MIC
[19] = C. freundii 902, agar dilution, read-out: MIC
[20] = Escherichia coli, sc, E. coli 25922, albino mice, s.c. 1 and 3 hours after infection, survival after 4 days, read-out: ED50
[21] = P. aeruginosa BA, albino mice, s.c. 1, 3 and 5 hours after infection, survival after 4 days, read-out: ED50
[22] = S. pneumoniae BA, agar dilution, read-out: MIC

Structure (SMILES) | MIC (E. coli 25922 [1]; [4]) [µg/mL] | MIC (S. pyogenes 15; [5]) [µg/mL] | MIC (P. aeruginosa MK1184; [6]) [µg/mL] | MIC (P. mirabilis 2117; [7]) [µg/mL] | MIC (P. aeruginosa 799/61; [8]) [µg/mL] | MIC (S. marcescens 69438; [9]) [µg/mL] | MIC (P. aeruginosa 799/WT; [10]) [µg/mL] | MIC (E. cloacae 908SSi; [11]) [µg/mL] | MIC (E. cloacae 908R; [12]) [µg/mL] | MIC (P. vulgaris 1028; [13]) [µg/mL] | MIC (S. aureus 6538; [14]) [µg/mL] | MIC (E. aerogenes CF153) [µg/mL] | MIC (P. aeruginosa BA; [15]) [µg/mL] | MIC (P. aeruginosa 27853; [16]) [µg/mL] | MIC (K. oxytoca 1082; [17]) [µg/mL] | MIC (E. cloacae P99) [µg/mL] | MIC (K. pneumoniae 418; [18]) [µg/mL] | MIC (C. freundii 902; [19]) [µg/mL] | ED50 (E. coli 25922 [2]; [20]) [mg/kg] | ED50 [3, 21] [mg/kg] | also measured
CC(C)(O/N=C(\C(=O)N[C@@H]1C(=O)N2C(C(=O)O)=C(CSc3nc(-c4ccccc4)ncc3-c3ccc(O)c(O)c3)CS[C@H]12)c1csc(N)n1)C(=O)NO [Example 17, (6R,7R)-7-[(Z)-2-(2-amino-4-thiazolyl)-2-[[1-(hydroxycarbamoyl)-1-methylethoxy]imino]acetamido]-3-[[[5-(3,4-dihydroxyphenyl)-2-phenyl-4-pyrimidinyl]thio]methyl]-8-oxo-5-thia-1-azabicyclo[4.2.0]oct-2-ene-2-carboxylic acid] | < 0.1 | 0.12 (≈ 0.154 µM) | 8 (≈ 10.3 µM) | 0.5 (≈ 0.642 µM) | < 0.1 | 0.5 (≈ 0.642 µM) | 2 (≈ 2.57 µM) | 8 (≈ 10.3 µM) | 1 (≈ 1.28 µM) | 0.25 (≈ 0.321 µM) | > 32 | 0.25 (≈ 0.321 µM) | 2 (≈ 2.57 µM) | 1 (≈ 1.28 µM) | 2 (≈ 2.57 µM) | 16 (≈ 20.5 µM) | 0.25 (≈ 0.321 µM) | 0.5 (≈ 0.642 µM) | – | – | –
CC(C)(O/N=C(\C(=O)N[C@@H]1C(=O)N2C(C(=O)O)=C(CS(=O)(=O)c3ccc(O)c(O)c3)CS[C@H]12)c1csc(N)n1)C(=O)NNC(=O)c1ccc(O)c(O)c1 [Example 47, (6R,7R)-7-[(Z)-2-(2-amino-4-thiazolyl)-2-[[1-[3-(3,4-dihydroxybenzoyl)carbazoyl]-1-methylethoxy]imino]acetamido]-3-[[(3,4-dihydroxyphenyl)sulphonyl]methyl]-8-oxo-5-thia-1-azabicyclo[4.2.0]oct-2-ene-2-carboxylic acid] | 0.12 (≈ 0.152 µM) | 1 (≈ 1.26 µM) | > 32 | 0.12 (≈ 0.152 µM) | 0.25 (≈ 0.316 µM) | 0.25 (≈ 0.316 µM) | 4 (≈ 5.05 µM) | 8 (≈ 10.1 µM) | 1 (≈ 1.26 µM) | 0.25 (≈ 0.316 µM) | 32 (≈ 40.4 µM) | – | 4 (≈ 5.05 µM) | 4 (≈ 5.05 µM) | 0.25 (≈ 0.316 µM) | 16 (≈ 20.2 µM) | < 0.1 | 0.5 (≈ 0.631 µM) | < 0.1 | 0.1 | MIC (S. pneumoniae BA; [22]): 1 µg/mL (≈ 1.26 µM)
Cc1cc(SCC2=C(C(=O)[O-])N3C(=O)[C@@H](NC(=O)/C(=N\OCS(=O)(=O)c4ccc(O)c(O)c4)c4csc(N)n4)[C@H]3SC2)n2nc(COC(=O)c3ccc(O)c(O)c3)nc2n1.[Na+] [Example 7, (6R,7R)-7-[(Z)-2-(2-amino-4-thiazolyl)-2-[[[(3,4-dihydroxyphenyl)sulphonyl]methoxy]imino]acetamido]-3-[[[2-[[(3,4-dihydroxybenzoyl)oxy]methyl]-5-methyl-s-triazolo[1,5-a]pyrimidin-7-yl]thio]methyl]-8-oxo-5-thia-1-azabicyclo[4.2.0]oct-2-ene-2-carboxylic acid sodium salt (1:1)] | – | – | – | – | – | – | – | – | – | – | – | – | – | – | – | 1 | – | – | – | – | ED50 (E. coli 25922 [2]; Escherichia coli, 25922, sc): < 0.3 mg/kg; ED50 [3]: 0.08 mg/kg; MIC (E. coli 25922 [1]; 25922): < 0.1 µg/mL; MIC (S. pyogenes 15; 15): 4 µg/mL; MIC (P. aeruginosa MK1184; MK1184): < 0.1 µg/mL; MIC (P. mirabilis 2117; 2117): 0.12 µg/mL; MIC (P. aeruginosa 799/61; 799/61): 0.25 µg/mL; MIC (S. marcescens 69438; 69438): 0.12 µg/mL; MIC (P. aeruginosa 799/WT; 799/WT): 0.5 µg/mL; MIC (E. cloacae 908SSi; 908SSI): 4 µg/mL; MIC (E. cloacae 908R; 908R): 2 µg/mL; MIC (P. vulgaris 1028; 1028): 0.12 µg/mL; MIC (S. aureus 6538; 6538): 32 µg/mL; MIC (P. aeruginosa BA): 0.12 µg/mL; MIC (P. aeruginosa 27853; 27853): 1 µg/mL; MIC (K. oxytoca 1082; 1082): < 0.1 µg/mL; MIC (S. pneumoniae BA): 2 µg/mL; MIC (K. pneumoniae 418; 418): < 0.1 µg/mL; MIC (C. freundii 902; 902): 0.12 µg/mL
Cc1cc(SCC2=C(C(=O)[O-])N3C(=O)[C@@H](NC(=O)/C(=N\OCS(=O)(=O)c4ccc(O)c(O)c4)c4csc(N)n4)[C@H]3SC2)n2nc(CNS(=O)(=O)c3ccc(O)c(O)c3)nc2n1.[Na+] [Example 3, (6R,7R)-7-[(Z)-2-(2-amino-4-thiazolyl)-2-[[[(3,4-dihydroxyphenyl)sulphonyl]methoxy]imino]acetamido]-3-[[[2-[(3,4-dihydroxybenzenesulphonamido)methyl]-5-methyl-s-triazolo[1,5-a]pyrimidin-7-yl]thio]methyl]-8-oxo-5-thia-1-azabicyclo[4.2.0]oct-2-ene-2-carboxylic acid sodium salt (1:1)] | – | – | – | – | – | – | – | – | – | – | – | – | – | – | – | 0.5 | – | – | – | – | ED50 (E. coli 25922 [2]; Escherichia coli, 25922, sc): 0.1 mg/kg; ED50 [3]: 0.04 mg/kg; MIC (E. coli 25922 [1]; 25922): < 0.1 µg/mL; MIC (S. pyogenes 15; 15): 4 µg/mL; MIC (P. aeruginosa MK1184; MK1184): < 0.1 µg/mL; MIC (P. mirabilis 2117; 2117): < 0.1 µg/mL; MIC (P. aeruginosa 799/61; 799/61): < 0.1 µg/mL; MIC (S. marcescens 69438; 69438): 0.12 µg/mL; MIC (P. aeruginosa 799/WT; 799/WT): 0.12 µg/mL; MIC (E. cloacae 908SSi; 908SSI): 8 µg/mL; MIC (E. cloacae 908R; 908R): 1 µg/mL; MIC (P. vulgaris 1028; 1028): < 0.1 µg/mL; MIC (S. aureus 6538; 6538): 32 µg/mL; MIC (P. aeruginosa BA): < 0.1 µg/mL; MIC (P. aeruginosa 27853; 27853): 0.25 µg/mL; MIC (K. oxytoca 1082; 1082): 0.25 µg/mL; MIC (S. pneumoniae BA): 2 µg/mL; MIC (K. pneumoniae 418; 418): < 0.1 µg/mL; MIC (C. freundii 902; 902): 0.12 µg/mL
CC(C)(O/N=C(\C(=O)N[C@@H]1C(=O)N2C(C(=O)O)=C(CSc3ncncc3-c3ccc(O)c(O)c3)CS[C@H]12)c1csc(N)n1)C(=O)NO [Example 19a, (6R,7R)-7-[(Z)-2-(2-amino-4-thiazolyl)-2-[[1-(hydroxycarbamoyl)-1-methylethoxy]imino]acetamido]-3-[[[5-(3,4-dihydroxyphenyl)-4-pyrimidinyl]thio]methyl]-8-oxo-5-thia-1-azabicyclo[4.2.0]oct-2-ene-2-carboxylic acid] | < 0.1 | 0.5 (≈ 0.711 µM) | 16 (≈ 22.8 µM) | 0.25 (≈ 0.356 µM) | < 0.1 | 0.12 (≈ 0.171 µM) | 0.25 (≈ 0.356 µM) | 2 (≈ 2.85 µM) | 16 (≈ 22.8 µM) | 0.12 (≈ 0.171 µM) | 16 (≈ 22.8 µM) | 0.12 (≈ 0.171 µM) | 1 (≈ 1.42 µM) | 2 (≈ 2.85 µM) | 1 (≈ 1.42 µM) | 16 (≈ 22.8 µM) | < 0.1 | 0.25 (≈ 0.356 µM) | – | – | –
Nc1nc(/C(=N/OCS(=O)(=O)c2ccc(O)c(O)c2)C(=O)N[C@@H]2C(=O)N3C(C(=O)O)=C(CS(=O)(=O)c4ccc(O)c(O)c4)CS[C@H]23)cs1 [Example 22, (6R,7R)-7-[(Z)-2-(2-amino-4-thiazolyl)-2-[[(3,4-dihydroxysulphonyl)methoxy]imino]acetamido]-3-[[(3,4-dihydroxyphenyl)sulphonyl]methyl]-8-oxo-5-thia-1-azabicyclo[4.2.0]oct-2-ene-2-carboxylic acid sodium salt] | 8 | 16 | > 32 | 16 | 0.25 | 16 | 16 | 16 | 32 | 16 | > 32 | – | > 32 | 32 | 0.5 | 32 | 0.5 | 16 | < 0.05 | 1.8 | MIC (S. pneumoniae BA; [22]): 16 µg/mL
